These results are taken from PMC3684613 (PLoS ONE, 2013).

pEC50: −log10 of the molar value. Where two headings read alike, the source gives them in different places.

Test [1] concerns P. falciparum 3D7. Details: method as in ChEMBL-NTD. Particulars: ref ChEMBL-NTD, cited from earlier work.
Test [2] relates to P. falciparum 3D7. Kind of test: DAPI stain fluorescent high content imaging assay, P. falciparum 3D7 (confirmatory screen, Avery). The following applies: Plasmodium falciparum; for pEC50: 3D7, read-out: EC50_nM; for inhibition of growth at 5 µM: 3D7, read-out: percent_inh @ 5 uM.

With `CC(C)=CCN1CCC(C(=O)Nc2ccc(-c3nc4ccccc4[nH]3)cc2)CC1` [MMV665946], the pEC50 in the test on P. falciparum 3D7 [1] (source GSK) is 6.04; in the test on P. falciparum 3D7 [1] (source StJude), 5.87; in the test with P. falciparum 3D7 [2], 5.94. Also, the inhibition of growth at 5 µM in the test with P. falciparum 3D7 [2] was determined as 96%.

Consider `O=C(Nc1ccccc1O)c1ccc(-c2ccc(Cl)cc2Cl)o1` [MMV665948], for which the pEC50 in the test on P. falciparum 3D7 [1] (source StJude) was 5.61. Also, the inhibition of growth at 5 µM with P. falciparum 3D7 [2] was determined as 97%.

`Oc1ccc(C(=C(Cl)Cl)c2ccc(O)cc2)cc1` [MMV665949]: the pEC50 in the test with P. falciparum 3D7 [1] (source StJude (SJ ids)) is 5.61. For the same compound, the inhibition of growth at 5 µM in the test on P. falciparum 3D7 [2] stood at 95%.

For the compound `O=C(Nc1ccc(F)c(Cl)c1)Nc1ccc(Cl)c(Cl)c1` [MMV665953], the pEC50 in the test on P. falciparum 3D7 [1] (source StJude) is 5.27. Also, in the test on P. falciparum 3D7 [2], the pEC50 is 5.69 and the inhibition of growth at 5 µM turned out to be 95%.

Regarding `O=C(NCC1Cc2cccc(-c3ccncc3)c2O1)c1csc2c1CCCC2` (centres unmarked) [MMV665954], the pEC50 with P. falciparum 3D7 [1] (source StJude) is 5.06. Besides, in the test on P. falciparum 3D7 [2], the pEC50 is 5.76 and the inhibition of growth at 5 µM is 87%.

Take `CCN(CC)CCCNc1nc(-c2ccc(Cl)cc2)nc2ccccc12` [MMV665961]: the pEC50 in the test on P. falciparum 3D7 [1] (source StJude) was 4.82. Moreover, the inhibition of growth at 5 µM with P. falciparum 3D7 [2] stood at 92%.

For `COc1cccc(C(=O)NC(c2ccc(C)cc2)c2cc(Cl)c3cccnc3c2O)c1` (centres unmarked) [MMV665969], the pEC50 with P. falciparum 3D7 [1] (source StJude (SJ ids)) was 4.82. Moreover, in the test with P. falciparum 3D7 [2], the pEC50 is 6.41 and the inhibition of growth at 5 µM came to 97%.

On to `CCOC(=O)C1=C(C)N=c2sc(=Cc3cc(Cl)ccc3O)c(=O)n2C1c1ccc(OC)cc1` (centres unmarked) [MMV665971], for which the figures for the pEC50 with P. falciparum 3D7 [1] (source GSK (TCMDC ids)), with P. falciparum 3D7 [1] (source StJude (SJ ids)) and in the test on P. falciparum 3D7 [2] were 6.13, 4.82 and 6.31, respectively. In the test on P. falciparum 3D7 [2], the inhibition of growth at 5 µM was 97%.

Take `O=C(Cc1ccccc1)NC(c1ccc(Cl)cc1)c1c(O)ccc2ccccc12` (centres unmarked) [MMV665972]: the results for the pEC50 with P. falciparum 3D7 [1] (values follow the order of the source (GNF; GSK; StJude)) and with P. falciparum 3D7 [2] were 4.82 and 5.94, respectively. For the same compound, the inhibition of growth at 5 µM with P. falciparum 3D7 [2] turned out to be 97%.

Take `CCOC(=O)c1cn(CC)c2cc(N(C)CCc3ccc(OC)c(OC)c3)c(F)cc2c1=O` [MMV665977]: the pEC50 in the test on P. falciparum 3D7 [1] (source GNF (GNF-Pf id)) was 6.99; in the test with P. falciparum 3D7 [1] (source GSK (TCMDC id)), 6.37; with P. falciparum 3D7 [2], 6.69. Besides, in the test on P. falciparum 3D7 [2], the inhibition of growth at 5 µM was 99%.

`FC(F)(F)c1cccc(CNC2CCN(CCc3ccccc3)CC2)c1` [MMV665979]: the pEC50 in the test with P. falciparum 3D7 [1] (source GNF) was 6.76. Moreover, in the test with P. falciparum 3D7 [2], the pEC50 is 6.16 and the inhibition of growth at 5 µM was 96%.

For `OC1CCCCC1C1(NC(=S)Nc2ccccc2)CCCCC1` (centres unmarked) [MMV665980], in the test on P. falciparum 3D7 [1] (source GNF (GNF-Pf ids)), the pEC50 was 6.68. In addition, in the test with P. falciparum 3D7 [2], the inhibition of growth at 5 µM is 59%.

As for `CCCCCCc1cc(O)c2c3c(c(=O)oc2c1)CCC(C)C3` (centres unmarked) [MMV665987], the results for the pEC50 in the test with P. falciparum 3D7 [1] (source GNF (GNF-Pf ids)) and in the test with P. falciparum 3D7 [2] were 6.44 and 6.27, respectively. The inhibition of growth at 5 µM in the test with P. falciparum 3D7 [2] was 96%.

As to `Cc1nc2ccccc2c(O)c1CC=C(Cl)Cl` [MMV665994], the pEC50 with P. falciparum 3D7 [1] (source GNF (GNF-Pf ids)) is 6.30. Moreover, in the test on P. falciparum 3D7 [2], the pEC50 was 6.08 and the inhibition of growth at 5 µM was determined as 89%.

Regarding `CN1c2ccccc2N(C)C1c1ccc2c(c1)OCO2` [MMV666009], the pEC50 in the test with P. falciparum 3D7 [1] (source GNF) is 5.95. Further, in the test on P. falciparum 3D7 [2], the pEC50 is 6.00 and the inhibition of growth at 5 µM was 60%.

As for `Cc1ccc(OCCCCCCNCCO)c(C)c1` [MMV666020], in the test with P. falciparum 3D7 [1] (source GNF (GNF-Pf ids)), the pEC50 was 5.71. Also, the inhibition of growth at 5 µM in the test on P. falciparum 3D7 [2] was determined as 49%.

In the case of `Cc1ccc(-c2cc3c(nn2)-c2ccccc2C3=O)cc1` [MMV666021], in the test on P. falciparum 3D7 [1] (source GNF), the pEC50 is 5.70. For the same compound, in the test on P. falciparum 3D7 [2], the pEC50 is 7.03 and the inhibition of growth at 5 µM was determined as 99%.

`COc1ccc(C(=O)NC(c2ccccc2Cl)c2cc(Cl)c3cccnc3c2O)cc1` (centres unmarked) [MMV666022]: the pEC50 in the test on P. falciparum 3D7 [1] (source GNF (GNF-Pf ids)) was 5.63. For the same compound, in the test on P. falciparum 3D7 [2], the pEC50 is 6.08 and the inhibition of growth at 5 µM came out at 96%.

Take `c1ccc(Cn2c(N=Nc3c(Nc4ccccc4)ccc4ccccc34)nc3ccccc32)cc1` [MMV666023]: the pEC50 in the test with P. falciparum 3D7 [1] (source GNF (GNF-Pf id)) was 5.56. Also, in the test with P. falciparum 3D7 [2], the pEC50 is 7.43 and the inhibition of growth at 5 µM worked out at 96%.

As for `OC(Cn1nnc2ccccc21)Cn1c2ccc(Br)cc2c2cc(Br)ccc21` (centres unmarked) [MMV666025], the pEC50 in the test on P. falciparum 3D7 [1] (source GNF (GNF-Pf ids)) is 5.47. In the test with P. falciparum 3D7 [2], the pEC50 is 5.90 and the inhibition of growth at 5 µM is 98%.

For `COc1ccc(-c2cc3c(nn2)-c2ccccc2C3=O)cc1` [MMV666026], in the test with P. falciparum 3D7 [1] (source GNF (GNF-Pf ids)), the pEC50 was 5.42. For the same compound, the inhibition of growth at 5 µM in the test on P. falciparum 3D7 [2] was found to be 97%.

In the case of `COc1ccc(C(=O)NC(c2ccc(Cl)cc2Cl)c2cc(Cl)c3cccnc3c2O)cc1` (centres unmarked) [MMV666054], the pEC50 in the test on P. falciparum 3D7 [1] (source GSK (TCMDC ids)) is 6.30. In the test with P. falciparum 3D7 [2], the pEC50 was 6.29 and the inhibition of growth at 5 µM came to 96%.

In the case of `O=C(Nc1ccc(Cl)cc1C(=O)Nc1ccncc1)c1ccc(Cl)cc1Cl` [MMV666057], in the test with P. falciparum 3D7 [1] (source GSK), the pEC50 is 6.21. Besides, in the test on P. falciparum 3D7 [2], the inhibition of growth at 5 µM was 94%.

As to `COc1ccc(CN2CCCC(C(=O)c3ccc(C(F)(F)F)cc3)C2)c(O)c1` (centres unmarked) [MMV666060], in the test on P. falciparum 3D7 [1] (source GSK (TCMDC ids)), the pEC50 is 6.07. In addition, in the test with P. falciparum 3D7 [2], the inhibition of growth at 5 µM stood at 97%.

Turning to `COc1cccc(O)c1CN1CCC2(CCCN(Cc3ccc(F)cc3)C2)C1` (centres unmarked) [MMV666061], in the test with P. falciparum 3D7 [1] (source GSK), the pEC50 is 6.06. Further, in the test on P. falciparum 3D7 [2], the pEC50 was 6.28 and the inhibition of growth at 5 µM came to 95%.

Turning to `Cc1ccc(N2C(=O)C3C(C2=O)C2(c4ccccc4)C(=O)C3(c3ccccc3)C(c3ccccc3)=C2c2ccccc2)cc1` (centres unmarked) [MMV666062], the pEC50 in the test on P. falciparum 3D7 [1] (source GSK (TCMDC id)) is 6.06. In the test on P. falciparum 3D7 [2], the pEC50 is 6.55 and the inhibition of growth at 5 µM was 98%.

Take `COc1ccc(CNC2CCN(c3ccc(NC(=O)c4cccc(Cl)c4)cc3)CC2)cc1OC` [MMV666067]: in the test with P. falciparum 3D7 [1] (source GSK), the pEC50 is 5.99. In the test with P. falciparum 3D7 [2], the pEC50 was 6.18 and the inhibition of growth at 5 µM came out at 97%.

With `COc1ccc(CCN2CCC(CN(C)Cc3cnn(-c4ccccc4)c3)CC2)cc1` [MMV666069], the pEC50 in the test with P. falciparum 3D7 [1] (source GSK) is 5.94. In addition, in the test on P. falciparum 3D7 [2], the pEC50 is 5.84 and the inhibition of growth at 5 µM was 96%.

On to `O=C(NC1CCCC1)c1ccc(N2CCC(NCc3cccc(C(F)(F)F)c3)CC2)cc1` [MMV666070], for which the pEC50 in the test with P. falciparum 3D7 [1] (source GSK) was 5.88. Moreover, the inhibition of growth at 5 µM with P. falciparum 3D7 [2] came to 93%.

As for `Cc1ccc(CN2CCC(C(=O)Nc3ccc(-c4cc5ccccc5[nH]4)cc3)CC2)o1` [MMV666071], the pEC50 in the test on P. falciparum 3D7 [1] (source GSK) is 5.85. Further, the inhibition of growth at 5 µM with P. falciparum 3D7 [2] worked out at 77%.

With `COCCNC(=O)c1ccc(OC2CCN(Cc3ccc(F)c(F)c3)CC2)c(Cl)c1` [MMV666072], the pEC50 in the test with P. falciparum 3D7 [1] (source GSK) is 5.83. For the same compound, the inhibition of growth at 5 µM in the test with P. falciparum 3D7 [2] turned out to be 91%.

As for `COc1ccc(C2N(C)c3ccccc3N2C)cc1` [MMV666075], the pEC50 with P. falciparum 3D7 [1] (source StJude) is 4.82. The inhibition of growth at 5 µM in the test with P. falciparum 3D7 [2] was found to be 62%.

As for `Cc1ccc2cc3c(N)c4c(C)ccc(C)c4nc3nc2c1` [MMV666079], the pEC50 is 6.37 in the test with P. falciparum 3D7 [1] (source GNF (GNF-Pf ids)) and 5.88 with P. falciparum 3D7 [2]. In addition, the inhibition of growth at 5 µM with P. falciparum 3D7 [2] came to 98%.

For the compound `O=C(NC(c1ccccc1)c1ccc2cccnc2c1O)c1ccccc1` (centres unmarked) [MMV666080], the pEC50 in the test on P. falciparum 3D7 [1] (source GNF) is 6.27; in the test with P. falciparum 3D7 [1] (source GSK), 6.37; in the test on P. falciparum 3D7 [2], 5.93. In the test with P. falciparum 3D7 [2], the inhibition of growth at 5 µM came out at 95%.

`CCCc1c(C)nc2ccccc2c1O` [MMV666081]: the pEC50 in the test on P. falciparum 3D7 [1] (source GNF) was 6.20. Besides, the inhibition of growth at 5 µM in the test with P. falciparum 3D7 [2] is 88%.

Take `CCCC(c1nnnn1C1CCCCC1)N1CCN(C(=O)c2ccco2)CC1` (centres unmarked) [MMV666093]: in the test on P. falciparum 3D7 [1] (source GNF), the pEC50 is 5.88. Also, the inhibition of growth at 5 µM with P. falciparum 3D7 [2] was found to be 82%.

Consider `CCCc1c(C)nc2ccc(Br)cc2c1O` [MMV666095], for which the pEC50 in the test with P. falciparum 3D7 [1] (source GNF (GNF-Pf ids)) was 5.82; in the test on P. falciparum 3D7 [2], 5.92. Moreover, the inhibition of growth at 5 µM in the test with P. falciparum 3D7 [2] turned out to be 64%.
